Measured values from article PMC11984924, “Dipeptidic Phosphonates: Potent Inhibitors of Pseudomonas aeruginosa Elastase B Showing Efficacy in a Murine Keratitis Model” (Advanced Science, 2025).
Where two headings read alike, the source gives them in different places.

Target: T1, LasB (Pseudomonas aeruginosa, UniProt Q02RJ6)
T1 construct: made in house
Assay: In vitro LasB inhibition assay
Type: biochemical
Conditions: for fold loss in inhibition: bulkier residues
Description: 3.1 In vitro inhibition assays
LasB was expressed and purified as described previously.[3] In vitro inhibition assays (LasB,
MMPs, TACE). All in vitro inhibition assays were performed as described previously.[10] […]
Fluorescence signals were measured using a CLARIOstar plate reader (BMG
Labtech, Ortenberg, Germany). […]

T1 sequence (Q02RJ6 198-498): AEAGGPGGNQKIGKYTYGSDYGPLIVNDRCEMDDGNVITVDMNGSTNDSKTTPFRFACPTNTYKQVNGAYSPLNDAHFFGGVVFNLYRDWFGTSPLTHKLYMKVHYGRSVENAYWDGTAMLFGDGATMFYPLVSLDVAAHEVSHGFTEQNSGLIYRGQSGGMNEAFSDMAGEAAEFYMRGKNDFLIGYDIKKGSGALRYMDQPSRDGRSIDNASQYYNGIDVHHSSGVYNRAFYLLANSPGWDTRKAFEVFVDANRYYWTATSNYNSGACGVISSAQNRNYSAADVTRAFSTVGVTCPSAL

Structure (SMILES) | IC50 (IC50 LasB inhibition) | IC50 (read-out: IC50 LasB inhibition) | other results
CC(C)CC(C(=O)N[C@H](C(=O)Nc1ccc(OC(C)C)cc1)C(C)C)P(=O)(O)O (stereo partly drawn) [compound 34] | 56.7 ± 2 nM |  | 
CC(C)CC(C(=O)N[C@H](C(=O)Nc1cccc(Cl)c1)C(C)C)P(=O)(O)O (stereo partly drawn) [compound 28] | 282 ± 13 nM |  | 
Cc1ccc(NC(=O)[C@@H](NC(=O)C(CC(C)C)P(=O)(O)O)C(C)C)cc1 (stereo partly drawn) [compound 32] | 12.9 ± 0.4 nM |  | 
COc1ccc(NC(=O)[C@@H](NC(=O)C(CC(C)C)P(=O)(O)O)C(C)C)cc1 (stereo partly drawn) [compound 33] | 19.9 ± 0.8 nM |  | 
CC(=O)c1ccc(NC(=O)[C@@H](NC(=O)[C@H](CC(C)C)P(=O)(O)O)C(C)C)cc1 [(S)‐30] | 129 ± 4 nM |  | 
CC(C)CC(C(=O)N[C@@H](C)C(=O)Nc1ccc(Cl)c(Cl)c1)P(=O)(O)O (stereo partly drawn) [compound 8] |  | 61.7 ± 1.6 nM | fold increase in activity (alanine versus glycine dipeptide 7): 28 fold
CC[C@H](C)[C@H](NC(=O)C(CC(C)C)P(=O)(O)O)C(=O)Nc1ccc(Cl)c(Cl)c1 (stereo partly drawn) [compound 15] |  | 13.1 ± 0.5 nM | 
CC(C)CC(C(=O)N[C@@H](Cc1ccccc1)C(=O)Nc1ccc(Cl)c(Cl)c1)P(=O)(O)O (stereo partly drawn) [compound 23] |  | 426 ± 48 nM | 
CC(C)CC(C(=O)N[C@@H](CC1CCOCC1)C(=O)Nc1ccc(Cl)c(Cl)c1)P(=O)(O)O (stereo partly drawn) [compound 20] |  | 379 ± 8 nM | fold loss in inhibition: over 48 fold
CC(C)CC(C(=O)N[C@H](CC(=O)Nc1ccc(Cl)c(Cl)c1)C(C)C)P(=O)(O)O (stereo partly drawn) [compound 11] | 2720 ± 55 nM |  | 
CC(C)CC(C(=O)N[C@H](C(=O)Nc1ccc(C(F)(F)F)cc1)C(C)C)P(=O)(O)O (stereo partly drawn) [compound 29] | 15.2 ± 0.3 nM |  | 
CC(C)CC(C(=O)N[C@@H](CC(C)C)C(=O)Nc1ccc(Cl)c(Cl)c1)P(=O)(O)O (stereo partly drawn) [compound 17] |  | 59.4 ± 1.7 nM | 
CC(C)CC(C(=O)N[C@@H](CC1CCCCC1)C(=O)Nc1ccc(Cl)c(Cl)c1)P(=O)(O)O (stereo partly drawn) [compound 19] |  |  | fold loss in inhibition: over 48 fold
